Measured values reported in patent US6127409A, “Ascorbic acid derivative and vitamin C preparation containing the same” (priority 1997, dated 2000).
Structures can show the parent of a compound that is named as a salt. Where two headings read alike, the source gives them in different places.

Tests used:
[1] = Stability: residual ratio (concentration after storage/initial concentration) by HPLC after standing at room temperature for 10 days; assay type: physicochemical; settings: water
Protocol: Then, their residual ratios (concentration after storage/initial concentration) were determined by HPLC through a column Shodex Asahipak NH2P-50 4E (trade name, manufactured by Showa Denko KK) to evaluate stability.

[2] = test system: normal human adult mamma epidermal Keratinocyte; assay type: cell-based; settings: 20 hours culture
Protocol: About 6×10^5 cells of a normal human adult mamma epidermal Keratinocyte (available from Kurashiki Boseki KK) were sowed on a 60 mm plate and cultured in a serum-free culturing medium (manufactured by Kurashiki Boseki KK) for 2 hours, and after displacing with the same culturing medium having added thereto from 2 to 50 μM of an ascorbic acid or a derivative thereof, further cultured for 20 hours. The cells were collected by trypsin treatment, and the number of cells was counted by a Coulter Counter Model DN (trade name, manufactured by Coulter Electronics). The cells thus collected were washed with Hank's equilibrium salt solution, pulverized in an ultrasonic homogenizer, filtered through a Mol-cut II (UFPlLCC) (trade name, produced by Nippon Milipore KK) and analyzed by HPLC through a column Shodex Asahipak NH2P-50 4E (trade name, produced by Showa Denko KK). The amount of ascorbic acid and derivatives thereof was measured to determine the intracellular cumulative amount. As a control, culturing was performed in the same manner as above except for not adding ascorbic acid or a derivative thereof, and the ascorbic acid was quantitatively determined. The difference in the intracellular ascorbic acid cumulative amount between the case where ascorbic acid or a derivative thereof was added and the case where ascorbic acid or a derivative thereof was not added is shown in Table 2. […]

Row | Compound | remaining at 240 h, 2000 µM ([1]; 2 mM aqueous solution, room temperature, 10 days, HPLC, read-out: Stability (residual ratio: concentration after storage/initial concentration)) | Intracellular Cumulative Amount (difference from not added) ([2]; addition amount 2 μM) | Intracellular Cumulative Amount (difference from not added) ([2]; addition amount 50 μM) | remaining at 240 h, 2000 µM [1]
1 | O=C1O[C@H]([C@@H](O)CO)C(O)=C1OP(=O)([O-])[O-].[Mg+2] [L-Ascorbic acid-2-phosphate magnesium salt] | 97% | < 0.0002 Pmole/cell | 0.0022 Pmole/cell | –
2 | CCCCCCCCCCCCCCCC(=O)OC[C@H](O)[C@H]1OC(=O)C(OP(=O)(O)O)=C1O [L-Ascorbic acid-2-phosphate-6-palmitate magnesium salt] | – | – | – | 98%
